The assay relates to spleen lymphocytes. From the text: The effect of the compounds of this invention on the immune response to specific antigens involves immunization of mice with specific antigens such as bovine serum albumin (BSA) or keyhole limpet hemocyanin (KLH). Following immunization, it is possible to assess the cell-mediated or humoral (antibody) immune response to these antigens by various methods:
(1) Lymphocyte stimulation assays can be performed using varying concentrations of the specific antigens as mitogens in the lymphocyte stimulation microculture system described above. The only difference is that the incubation period is extended to five days instead of three as for the polyclonal mitogens.
Mice of the C57BL/6 strain are given i.p. injections of either 50, 100, 200 or 400 mg/kg of Cpd. 1 or buffer for ten days (days 1-10). An antigen, keyhole limpet hemocyanin (KLH), is administered intraperitoneally with Freund's Complete Adjuvant (FCA) on days 1, 7, and 13. Blood samples are taken for assay of the antibody response on days 0, 5, 12, and 17. Spleens are removed, lymphocytes isolated and a lymphocyte stimulation assay with PHA, Con-A or KLH antigen as the mitogens is performed on day 17 of the experiment.

Molecules are shown by their SMILES. Like-named read-outs stand apart in the source and are kept apart here.

For `Cc1ccc(C2(O)C(=O)OC3C(O)COC32O)o1.Cc1ccc(C2(O)C(=O)OC3C(O)COC32O)o1.O=C1CCC(=O)O1` (stereo not shown) [Cpd. 1, 2-furylbutyrolactone:succinic anhydride], for the setting “50 mg/kg, Day 17”, the “Lymphocyte Stimulation Index, Con-A” value turned out to be 19.0. In addition, the “Lymphocyte Stimulation Index” value (50 mg/kg, KLH 0.025 μg/well, Day 17) is 0.0386; the “Lymphocyte Stimulation Index” value (50 mg/kg, KLH 0.05 μg/well, Day 17) came out at 0.357; the “Lymphocyte Stimulation Index” value (50 mg/kg, KLH 0.5 μg/well, Day 17) is listed as 0.415; the “Lymphocyte Stimulation Index” value (50 mg/kg, KLH 1.0 μg/well, Day 17) was determined as 0.536; the “Lymphocyte Stimulation Index” value (100 mg/kg, KLH 0.025 μg/well, Day 17) is given as 0.401; the “Lymphocyte Stimulation Index” value (100 mg/kg, KLH 0.05 μg/well, Day 17) is 0.526. For the same compound, the “Lymphocyte Stimulation Index” value by setting is: (100 mg/kg, KLH 0.5 μg/well, Day 17) 0.734; (100 mg/kg, KLH 1.0 μg/well, Day 17) 0.898; (200 mg/kg, KLH 0.025 μg/well, Day 17) 3.91; (200 mg/kg, KLH 0.05 μg/well, Day 17) 1.02; (200 mg/kg, KLH 0.5 μg/well, Day 17) 4.26; (200 mg/kg, KLH 1.0 μg/well, Day 17) 7.45. For the same compound, the “Lymphocyte Stimulation Index” value runs as follows: (400 mg/kg, KLH 0.025 μg/well, Day 17) 1.03; (400 mg/kg, KLH 0.05 μg/well, Day 17) 0.667; (400 mg/kg, KLH 0.5 μg/well, Day 17) 0.232; (400 mg/kg, KLH 1.0 μg/well, Day 17) 0.589. For the setting “200 mg/kg, Con-A or KLH, day 17”, the “lymphocyte DNA synthesis (in words)” value is “statistically significant increase in lymphocyte DNA synthesis”. Besides, under “400 mg/kg, Day 17”, the “Lymphocyte Stimulation Index, Control (no mitogen)” value stood at 0.840.

The values above are taken from patent publication US4518611A, “2-Furylbutyrolactone modulation of the immune system in mammals” (priority 1983, dated 1985).
